Article PMC8955370, “Triterpenes and Phenolic Compounds from Euphorbia deightonii with Antiviral Activity against Herpes Simplex Virus Type-2” (Plants, 2022)
Where two headings read alike, the source gives them in different places.

Columns and labels:
[1] = MTT cell viability assay for cytotoxic concentration 50% (CC50); assay type: cell-based; conditions: African green monkey
Protocol: For the determination of cytotoxic concentration 50% (CC50), a cell viability test was performed as an MTT assay using the Vero cell line. Cells were seeded at a density of 4 × 10^4 cells/well. After an overnight period, fresh medium was complemented with serial 2-fold dilutions of all compounds 1–8. The cells were incubated at 37 °C for 24 h. Later, 20 μL of thiazolyl blue tetrazolium bromide (MTT; Sigma-Aldrich, St. Louis, MO, USA) was added to each well. After an additional incubation at 37 °C for 4 h, sodium dodecyl sulphate (Sigma-Aldrich, St. Louis, MO, USA) solution (10% in 0.01 M HCI) was added and incubated overnight. CC50 was then determined by measuring the OD at 550 nm (ref. 630 nm) with the EZ READ 400 ELISA reader (Biochrom, Cambridge, UK). The assay was replicated four times for each concentration.

HSV-2 [2] = assay: Anti-HSV-2 qRT-PCR assay on infected Vero cells; conditions: for IC50: Human alphaherpesvirus 2, Vero; for Selectivity Index: SI = CC50/IC50; for Anti-HSV-2 Activity IC50: Vero cells infected with 0.01 MOI HSV-2, 24 h, qRT-PCR
HSV-2 [3] = conditions: by reducing HSV-2 infectivity; cited from earlier work
rat epithelioid = tested on: rat epithelioid; parameters: method as in PMID 26274958; conditions: rat epithelioid cells; cited from earlier work
[4] = tested on: human normal liver (L–O2); parameters: method as in PMID 23109850; conditions: L–O2 cells; cited from earlier work
[5] = tested on: gastric epithelial cell lines (GES–2); parameters: method as in PMID 23109850; conditions: GES–2 cells; cited from earlier work
[6] = tested on: six terrestrial pathogenic bacteria; parameters: method as in PMID 24914904; conditions: cited from earlier work
[7] = tested on: human HT-1080 fibrosarcoma; parameters: method as in PMID 9677271; conditions: cited from earlier work
[8] = tested on: murine colon 26-L5 carcinoma cells; parameters: method as in PMID 9677271; conditions: cited from earlier work
Bacillus subtilis = tested on: Bacillus subtilis; parameters: method as in doi:10.1016/S0031-9422(00)81759-8; conditions: cited from earlier work
Klebsiella pneumoniae = tested on: Klebsiella pneumoniae; parameters: method as in doi:10.1016/S0031-9422(00)81759-8; conditions: cited from earlier work
Trychophyton rubrum = tested on: Trychophyton rubrum; parameters: method as in doi:10.1016/S0031-9422(00)81759-8; conditions: cited from earlier work
[9] = tested on: influenza A virus (A/PR/8/34, H1N1); parameters: method as in PMID 28081470; conditions: not effective; cited from earlier work
[10] = tested on: porcine circovirus type 2 (PCV2); parameters: method as in doi:10.1007/s12257-014-0520-8; conditions: at the concentration of 0.01563 mg/mL; cited from earlier work
hepatitis B virus (HBV) = tested on: hepatitis B virus (HBV); parameters: method as in PMID 31557836; conditions: HepG2.2.15 model transfected with HBV; cited from earlier work
[11] = tested on: acyclovir (ACV)-resistant strains of HSV-1; parameters: method as in PMID 32545813; conditions: ACV-resistant HSV-1; cited from earlier work
[12] = tested on: acyclovir (ACV)-resistant strains of HSV-2; conditions: ACV-resistant HSV-2; cited from earlier work
HSV-1 = tested on: HSV-1; parameters: method as in PMID 14526920; conditions: cited from earlier work
HSV-2 [13] = tested on: HSV-2; parameters: method as in PMID 14526920; conditions: cited from earlier work
HSV = tested on: HSV; parameters: method as in PMID 14998984; conditions: cited from earlier work
[14] = 24 h, read-out: Anti-HSV-2 Activity IC50
[15] = Vero cells, MTT assay, 24 h, read-out: CC50

Molecule: C=CC(OC)c1cc(OC)c2c(c1)[C@@H](COC(C)=O)[C@H](c1ccc(O)c(OC)c1)O2 (relative stereo) [Compound 4, trans-(2-(4-hydroxy-3-methoxyphenyl)-7-methoxy-5-(1-methoxyallyl)-2,3-dihydrobenzofuran-3-yl)methyl acetate]
- CC50 at 24 h [1]: 39.8 ± 4.73 µM
- IC50 (HSV-2 [2]; [14]): 11.7 ± 0.79 µM
- Selectivity Index (HSV-2 [2]): 3.389

Molecule: O=C(OC1C(O)C(O)OC2COC(=O)c3cc(O)c(O)c(O)c3-c3c(cc(O)c(O)c3O)C(=O)OC21)c1cc(O)c(O)c(O)c1 [3-O-galloyl-4,6-(S)-hexahydroxydiphenoyl-D-glucose]
- HSV-2 multiplication (HSV-2 [3]): inhibit HSV-2 multiplication

Molecule: Nc1nc2c(ncn2COCCO)c(=O)[nH]1 [Acyclovir, reference compound]
- CC50 at 24 h [1]: 100 ± 6.15 µM
- IC50 (HSV-2 [2]; [14]): 0.77 ± 0.032 µM
- Selectivity Index (HSV-2 [2]): 129.87

Molecule: C=C(CC[C@@H](C)[C@H]1CC[C@@]2(C)C3=C(C(=O)C[C@]12C)[C@@]1(C)CC[C@H](O)C(C)(C)[C@@H]1C[C@@H]3O)C(C)C [Compound 1, 3β,7β-dihydroxy-24-methylenelanosta-8-ene-11-one]
- CC50 at 24 h [1]: 35.5 ± 1.62 µM
- IC50 (HSV-2 [2]; [14]): 7.05 ± 0.25 µM
- Selectivity Index (HSV-2 [2]): 5.03

Molecule: CC(C)=CCC[C@@H](C)[C@@H]1CC[C@]2(C)C3=C(CC[C@@]12C)[C@@]1(C)CC[C@H](O)C(C)(C)[C@@H]1CC3=O [Compound 2, kansenone]
- CC50 at 24 h [1, 15]: 52.1 ± 2.21 µM
- cytotoxicity (rat epithelioid): strong cytotoxicity
- cytotoxicity [4]: strong cytotoxicity
- cytotoxicity [5]: strong cytotoxicity
- Anti-HSV-2 Activity IC50 (HSV-2 [2]): inactive

Molecule: C=C(CC[C@H](C)[C@@H]1CC[C@@]2(C)C3=C(CC[C@]12C)[C@@]1(C)CC[C@H](O)C(C)(C)[C@@H]1CC3=O)C(C)C [Compound 3, euphorbol-7-one]
- CC50 at 24 h [1, 15]: 7.84 ± 0.96 µM
- antibacterial activity [6]: ineffective
- IC50 (HSV-2 [2]; [14]): 2.42 ± 0.06 µM
- Selectivity Index (HSV-2 [2]): 3.23

Molecule: COc1cc([C@H]2Oc3c(OC)cc(/C=C/COC(C)=O)cc3[C@@H]2COC(C)=O)ccc1O [Compound 5, dehydrodiconiferyl-diacetate]
- CC50 at 24 h [1]: 82.5 ± 8.94 µM
- cytotoxic activity [7]: moderate cytotoxic activity
- cytotoxic activity [8]: moderate cytotoxic activity
- Anti-HSV-2 Activity IC50 (HSV-2 [2]): inactive

Molecule: COc1cc(C(OC)C(COC(C)=O)Oc2ccc(/C=C/COC(C)=O)cc2OC)ccc1O (centres unmarked) [Compound 6, marylaurencinol D]
- CC50 at 24 h [1]: 71.6 ± 5.83 µM
- antimicrobial activity (Bacillus subtilis): weak potency
- antimicrobial activity (Klebsiella pneumoniae): no effect
- antimicrobial activity (Trychophyton rubrum): no effect
- Anti-HSV-2 Activity IC50 (HSV-2 [2]): inactive

Molecule: COc1cc2ccc(=O)oc2cc1OC [Compound 7, 6,7-dimethoxycoumarin]
- CC50 at 24 h [1]: 0.35 ± 0.016 µM
- IC50 against influenza A virus [9]: > 15 µg/mL
- effect on PCV2 replication [10]: replication-inducing activity
- anti-hepatitis B virus activity (hepatitis B virus (HBV)): efficiently inhibits viral replication
- IC50 (HSV-2 [2]; [14]): 0.032 ± 0.0021 µM
- IC50 (HSV-2 [2]; read-out: IC50 (anti-HSV-2)): 0.032 µM
- Selectivity Index (HSV-2 [2]): 10.923

Molecule: COc1cc2c(=O)oc3c(OC)c(O)cc4c(=O)oc(c1OC)c2c34 [Compound 8, 3,4,3′-tri-O-methylellagic acid]
- CC50 at 24 h [1]: 25.7 ± 1.84 µM
- Anti-HSV-2 Activity IC50 (HSV-2 [2]): inactive

Molecule: O=C1OC[C@H]2OC(=O)c3cc(O)c(O)c(O)c3-c3c(O)c(O)c(O)c4c3C(=O)O[C@H]([C@H]3OC(=O)c5c-4c(O)c(O)c(O)c5[C@H]3O)[C@@H]2OC(=O)c2cc(O)c(O)c(O)c2-c2c1cc(O)c(O)c2O [castalagin]
- antiviral activity [11]: activity against acyclovir (ACV)-resistant strains of HSV-1 and HSV-2 was proved
- antiviral activity [12]: activity against acyclovir (ACV)-resistant strains of HSV-1 and HSV-2 was proved

Molecule: C=C(C)[C@@H]1CC[C@]2(C)CC[C@]3(C)[C@H](CC[C@@H]4[C@@]5(C)CCC(=O)C(C)(C)[C@@H]5CC[C@]43C)[C@@H]12 [lupenone]
- viral plaque inhibitory effect (HSV-1): strong viral plaque inhibitory effect
- viral plaque inhibitory effect (HSV-2 [13]): strong viral plaque inhibitory effect

Molecule: O=C(OC1OC2COC(=O)c3cc(O)c(O)c(O)c3-c3c(cc(O)c(O)c3O)C(=O)OC3C2OC(=O)C24CC5(O)OC6(OCC(O)C6O)C2OC2(O)C4c4c(cc(O)c(O)c4OC52O)C(=O)OC13)c1cc(O)c(O)c(O)c1 (centres unmarked) [putranjivain A]
- viral attachment and cell penetration (HSV): inhibition of viral attachment and cell penetration
- viral infectivity (HSV): significantly reduce viral infectivity

Molecule: O=C1OCC2OC(=O)c3cc(O)c(O)c(O)c3-c3c(O)c(O)c(O)c4c3C(=O)OC(C2OC(=O)c2cc(O)c(O)c(O)c2-c2c1cc(O)c(O)c2O)C1OC(=O)c2c-4c(O)c(O)c(O)c2C1O (centres unmarked) [vescalagin]
- antiviral activity [11]: activity against acyclovir (ACV)-resistant strains of HSV-1 and HSV-2 was proved
- antiviral activity [12]: activity against acyclovir (ACV)-resistant strains of HSV-1 and HSV-2 was proved

Molecule: grandinin
- antiviral activity [11]: activity against acyclovir (ACV)-resistant strains of HSV-1 and HSV-2 was proved
- antiviral activity [12]: activity against acyclovir (ACV)-resistant strains of HSV-1 and HSV-2 was proved
